Experimental data reported in ChEMBL document CHEMBL1154072, “An efficient steroid pharmacophore-based strategy to identify new aromatase inhibitors” (Eur J Med Chem, 2009).

How the values were obtained:
Aromatase [1] = biological target: T1, Aromatase (Homo sapiens, UniProt P11511); assay: Inhibition of human placental aromatase assessed as conversion of [1-beta-3H]androstenedione to [1beta-3H]estrone after 20 mins by liquid scintillation counting
T1 sequence (P11511 whole entry): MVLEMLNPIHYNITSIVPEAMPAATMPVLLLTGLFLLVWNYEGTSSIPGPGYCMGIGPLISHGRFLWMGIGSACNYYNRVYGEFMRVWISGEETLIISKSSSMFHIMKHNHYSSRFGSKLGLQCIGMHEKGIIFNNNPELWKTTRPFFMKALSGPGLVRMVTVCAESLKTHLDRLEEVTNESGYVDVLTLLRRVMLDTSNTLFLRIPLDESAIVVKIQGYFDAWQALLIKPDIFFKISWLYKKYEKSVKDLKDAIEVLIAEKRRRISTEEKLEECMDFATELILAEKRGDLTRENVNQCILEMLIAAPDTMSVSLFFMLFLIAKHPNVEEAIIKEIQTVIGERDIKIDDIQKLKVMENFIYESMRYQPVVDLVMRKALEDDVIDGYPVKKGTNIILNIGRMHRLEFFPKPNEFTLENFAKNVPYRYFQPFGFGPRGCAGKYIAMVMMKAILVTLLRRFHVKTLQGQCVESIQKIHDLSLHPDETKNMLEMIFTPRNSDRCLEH

Aromatase [2] = biological target: T1, Aromatase; assay: Inhibition of human placental aromatase assessed as conversion of [1-beta-3H]androstenedione to […] at 100 uM after 20 mins by liquid scintillation counting; conditions: for inhibition (INH): 100 µM
Aromatase [3] = biological target: T1, Aromatase; assay: Competitive inhibition of human placental aromatase by Lineweaver-Burke plot analysis
Aromatase [4] = biological target: T1, Aromatase; assay: Inactivation of human placental aromatase assessed as residual activity at 7.5 uM after 12 mins in presence of 0.5 mM L-cysteine; conditions: 0.2 h
Aromatase [5] = biological target: T1, Aromatase; assay: Inhibition of human placental aromatase assessed as conversion of [1-beta-3H]androstenedione to […] at 30 uM after 20 mins by liquid scintillation counting

Structure (SMILES)	IC50 (Aromatase [1]) [nM]	also measured
C[C@]12CCC(=O)C(O)=C1CC[C@@H]1[C@@H]2CC[C@]2(C)C(=O)CC[C@@H]12 [FORMESTANE]	92	
C[C@H]1C2=CC(=O)CCC(C)(O2)[C@H]2CC[C@]3(C)C(=O)CC[C@H]3[C@H]12 (some centres undefined)	9800	
CCOC(=O)C1=C(C)C2C=C(c3cccs3)CC(c3ccc(Cl)cc3)=C2OC1=O (centres undefined)		inhibition at 100 µM (Aromatase [2]): 26%
CC1C(O)CC23COC(=O)C2=CCCC3C1(C)CCC1=CC(=O)OC1 (centres undefined)	126000	
CCCC(=O)Oc1cc(OC(=O)CCC)c2c(C)cc(=O)oc2c1	176000	
CC1C2=CC(=O)CCC2(C)C2CCC3(C)C(=O)CCC3C12 (centres undefined)	274	Ki (Aromatase [3]): 266 nM
Cc1nc2c(cc1C#N)C(Nc1ccc(Cl)cc1)Oc1ccc([N+](=O)[O-])cc1-2 (centres undefined)	678	Ki (Aromatase [3]): 385 nM; Activity (Aromatase [4]): Active
CCn1cc(C(=O)O)c(=O)c2ccc(-c3c[nH]nc3C)nc21		inhibition (INH) (Aromatase [2]): Not Active
CCCCSC(=O)[C@@]1(C)CC[C@H]2[C@@H](CC=C3C[C@@H](OC(C)=O)CC[C@@]32C)[C@@H]1CC#N		inhibition at 30 µM (Aromatase [5]): 21%
C=C1C(=O)O[C@H]2C[C@@H](C)[C@@H]3CC(=O)OC[C@@]3(C)C[C@H]12		inhibition (INH) (Aromatase [2]): Not Active
CC/C(=C1\C=CC(=O)S1)C(CC)c1ccc(OC(C)=O)cc1 (centres undefined)	15500	
